Patent publication US20140194506A1, “Use of Potassium Piperonyl Pentadienoate for Lowering Blood Lipid” (INNER MONGOLIA UNIVERSITY, priority 2011, published 2014)
“And” between values parts separate entries of the source, which are not always exact repeats. Equal entries are not always repeated.

Legend:
[1] = tested on: high lipid mode white rats; assay: Prophylactic blood lipid lowering in high lipid feed white rats (Example 2); format: in vivo, Wistar male white rats
Description: High lipid feed formula: cholesterol 3%, lard 10%, sodium cholate 0.5%, basal feed: […] (formula: flour 17.14%, rice flour 8.57%, maize […], bran 21%, fish flour 1.71%, dairy salt 0.857%, vitamin 0.085%, bean material 17.14%).
60 Wistar White male rats of 150±10 g of body weight were fed with common standard feed for 5 days, and then divided into 6 groups randomly. Each group included 10 rats. Group I was a blank group, where the rats were fed with common standard feed. Group II was a high lipid feed mode control group. Group III was a Simvastatin 10 mg/kg group. Group IV was a GB-O group. Group V was a GB-H group. Group VI was a GB-K group. High lipid feed mode control group were fed with high lipid feed together with distilled water. Groups III, IV, V, and VI were fed with high lipid feed together with required simvastatin, GB-O, GB-H, and GB-K suspensions (formulated by grinding with 0.5% sodium […] CMC-Na) respectively. The dosing amount was 0.046 mmol/kg, and the amount of high lipid feed was 20 g per day for each rat. The grouping and the dosing amount for each group can be found in table 1.
(§1) The body weights of white rats were determined and recorded every day. The rats in each group were dosed basing on its body weight by feeding for 14 days at 22° C. of room temperature and 40-50% of relative humidity. On the 14th day, after fasting and freely receiving water for 16 hours, its blood was sampled from aorta, placed for 30 min to blood coagulate, and centrifugated for 15 min at 3000 r/min to separate serum. The values of serum total cholesterol (TC), and triglyceride (TG) were determined on an automatic analyzer using enzymatic colorimetry, the value of high density lipoprotein cholesterol (HDL) was determined using a phosphotungstic acid-Mg precipitation method, and the value of low density lipoprotein cholesterol (LDL) was determined using the polyvinyl sulfate precipitation method.
(§2) All data were treated statistically, and were presented as means±standard deviations (x±s). The significance of difference was judged by T test. The calculation of p value was obtained by comparing the high lipid mode group with the blank control group, and comparing other test drug groups with the high lipid mode group.
(§3) The reaction temperature was 37° C. The cholesterol ester in serum was first hydrolyzed into free cholesterol (FC) and fatty acid with cholesterol ester hydrolase (CEH). Then, all FC in serum was oxidized into ch-4-en-3-one and H2O2 with cholesterol oxidase (COD). The resulting H2O2 was reacted with 4-aminoantipyrine (4-AAP) and 4-chlorophenol in the presence of peroxidase (POD) (Trinder reaction), to yield red quinine imine, which was calorimetrically tested at a 500 nm wavelength.
The reaction temperature was 37° C. The triglyceride ire serum was first hydrolyzed into glycerol and fatty acid with lipoprotein lipase (LPL). The resulting glycerol was reacted with ATP in the presence of glycerol kinase (GK), to produce glycerol-3-phosphate and ADP. The resulting glycerol-3-phosphate was oxidized into dihydroxyacetone phosphate and H2O2 with oxygen in the presence of glycerol phosphate oxidase (GPO). The resulting H2O2 was reacted with 4-aminoantipyrine (4-AAP) and 4-chlorophenol in the presence of peroxidase (POD) (Trinder reaction), to yield red quinine imine, which was colorimetrically determined at a 500 nm wavelength.
The LDL in serum was precipitated using PVS. The serum TC and the Ch in the resulting supernatant were determined using the enzymatic methods described hereinabove, and the LDL-C was calculated by subtracting the Ch from the serum TC. The polyethylene glycol monoether (PEGME) was added in a suitable amount in order to facilitate the precipitation of LDL. […]

[2] = tested on: high lipid mode white rats; assay: Therapeutic blood lipid lowering in hyperlipoidemia mode white rats (Example 3); format: in vivo, Wistar male white rats
Description: High lipid feed formula: cholesterol 3%, lard 10%, sodium cholate 0.5%, basal feed: 86.5% (formula: flour 17.14%, rice flour 8.57%, maize 17.14%, bran 21%, fish flour 1.71%, dairy salt 0.857%, vitamin 0.085%, bean material 17.14%).
72 Wistar white male rats of 170±10 g of body weight were divided into 6 groups randomly and numbered. Each group included 12 rats. The rats were fed with common standard feed under experimental conditions and observed for 7 days, and its blood was sampled from tail for testing serum total cholesterol (TC). […] From the 8th day, the group I was set as a blank group, and was fed with common standard feed. Other groups were fed with high lipid feed for 8 days in a row, and the blood was sampled from tail on the next day for testing TC. […] The rats then were divided into 5 groups randomly (see table 12) according to TC levels. Each group included 10 rats (10 rats who were unsuccessful blood lipid modes were discarded). The rats were ted with high lipid teed continuously. Group was a high lipid feed mode control group. Group III was a Simvastatin 10 mg/kg group. Group IV was a GB-O group. Group V was a GB-H group. Group VI was a GB-K group. The high lipid feed mode control group was fed with high lipid feed together with distilled water. Groups III, IV, V, and VI were fed with high lipid feed together with required simvastatin, GB-O, GB-H, and GB-K suspensions (formulated by grinding with 0.5% sodium carboxymethycellulose CMC-Na) respectively. The dosing amount was 0.046 mmol/kg, and the amount of high lipid feed was 20 g per day for each rat. The grouping and the dosing amount for each group can be found in table 13.
as §1, with “rats for” for “rats in”, “dosed basing,” for “dosed basing”, “hours, the” for “hours, its”, “coagulate,” for “coagulate, and”, “using a” for “using the”
as §2, with “and are” for “and were”, “as means standard” for “as means±standard”
as §3, with “hydrolase (CEH.)” for “hydrolase (CEH).”, “and H2O2)” for “and H2O2”, “resulting H2O2,” for “resulting H2O2”, “was colarimetrically” for “was calorimetrically”, “at” for “at a”
The reaction temperature was 37° C. The triglyceride in serum was first hydrolyzed into glycerol and fatty acid with lipoprotein lipase (LPL). The resulting glycerol was reacted with ATP in the presence of glycerol kinase (GK), to produce glycerol-3-phosphate and ADP. The resulting glycerol-3-phosphate was oxidized into dihydroxyacetone phosphate and H2O2 with oxygen in the presence of glycerol phosphate oxidase (GPO). […]

[3] = group mean n=10, 15th day after administration
[4] = in comparison with group II (high lipid mode control group)
[5] = rats No. 1-10, 0.046 mmol/kg (Simvastatin 10 mg/kg), 15th day after administration

## O=C(O)/C=C/C=C/c1ccc2c(c1)OCO2 [GB-H, piperonyl pentadienoic acid]
[1]; Table 6, mean ± standard deviation, n=10
  Total cholesterol value: 13.23 ± 3.49
[1]; Table 7, mean ± standard deviation, n=10
  Triglyceride value: 1.31 ± 0.3219 mmol/L
[1]; Table 8, mean ± standard deviation, n=10
  Low density lipoprotein cholesterol: 4.298 ± 1.0578 mmol/L
[1]; Table 9, mean ± standard deviation, n=10
  High density lipoprotein cholesterol: 0.325 ± 0.0902 mmol/L
[1]; group mean n=10, 0.046 mmol/kg (Simvastatin 10 mg/kg), 15th day after administration
  serum total cholesterol (TC) contents, Mean: 13.23 mmol/L
[1]; [3]
  serum high density lipoprotein cholesterol (HDL) contents, Mean: 0.32 mmol/L
  serum low density lipoprotein cholesterol (LDL) contents, Mean: 4.29 mmol/L
  serum triglyceride (TG) contents, Mean: 1.31 mmol/L
[1]; [4]
  effect on serum low density lipoprotein cholesterol, in words: show the effect of lowering serum low density lipoprotein cholesterol value
  effect on serum total cholesterol, in words: extremely significant differences
[1]; in comparison with group II (high lipid mode control group), listed as GB-1-1
  effect on serum triglyceride, in words: extremely significant differences
[1]; [5]
  serum high density lipoprotein cholesterol (HDL) contents, individual rats: 0.26 mmol/L (2×) and 0.48 mmol/L and 0.18 mmol/L and 0.35 mmol/L and 0.28 mmol/L and 0.42 mmol/L and 0.41 mmol/L and 0.30 mmol/L and 0.31 mmol/L
  serum low density lipoprotein cholesterol (LDL) contents, individual rats: 4.53 mmol/L and 5.85 mmol/L and 4.24 mmol/L and 2.74 mmol/L and 4.19 mmol/L and 2.68 mmol/L and 5.09 mmol/L and 4.86 mmol/L and 3.51 mmol/L and 5.29 mmol/L
  serum triglyceride (TG) contents, individual rats: 1.15 mmol/L and 1.64 mmol/L and 1.71 mmol/L and 0.91 mmol/L and 0.88 mmol/L and 1.06 mmol/L and 1.58 mmol/L and 1.23 mmol/L and 1.70 mmol/L and 1.30 mmol/L
[1]; rats No. 1-10, high lipid feed plus drug 14 days, 0.046 mmol/kg (Simvastatin 10 mg/kg), 15th day after administration
  serum total cholesterol (TC) contents, individual rats: 16.64 mmol/L and 14.72 mmol/L and 10.11 mmol/L and 13.12 mmol/L and 9.56 mmol/L and 7.83 mmol/L and 12.22 mmol/L and 14.24 mmol/L and 14.28 mmol/L and 19.58 mmol/L
[2]; Table 18, mean ± standard deviation, n=10
  Total cholesterol value: 11.09 ± 1.82
[2]; Table 19, mean ± standard deviation, n=10
  Triglyceride value: 2.55 ± 0.42 mmol/L
[2]; Table 20, mean ± standard deviation, n=10
  Low density lipoprotein cholesterol: 3.34 ± 1.30 mmol/L
[2]; Table 21, mean ± standard deviation, n=10
  High density lipoprotein cholesterol: 0.67 ± 0.21 mmol/L
[2]; [3]
  serum high density lipoprotein cholesterol (HDL) contents, Mean: 0.67 mmol/L
  serum low density lipoprotein cholesterol (LDL) contents, Mean: 3.34 mmol/L
  serum total cholesterol (TC) contents, Mean: 11.09 mmol/L
  serum triglyceride (TG) contents, Mean: 2.55 mmol/L
[2]; [4]
  effect on serum high density lipoprotein cholesterol, in words: show the effect of some extent, of increasing high density lipoprotein cholesterol
  effect on serum low density lipoprotein cholesterol, in words: significant differences
  effect on serum total cholesterol, in words: extremely significant differences
  effect on serum triglyceride, in words: extremely significant differences
[2]; [5]
  serum high density lipoprotein cholesterol (HDL) contents, individual rats: 0.67 mmol/L and 0.85 mmol/L and 0.72 mmol/L and 0.77 mmol/L and 0.37 mmol/L and 0.46 mmol/L and 0.82 mmol/L and 0.73 mmol/L and 1.02 mmol/L and 0.35 mmol/L
  serum low density lipoprotein cholesterol (LDL) contents, individual rats: 2.22 mmol/L and 5.37 mmol/L (2×) and 2.03 mmol/L and 3.35 mmol/L and 3.61 mmol/L and 2.68 mmol/L and 2.09 mmol/L and 4.36 mmol/L and 2.34 mmol/L
  serum triglyceride (TG) contents, individual rats: 1.97 mmol/L and 2.08 mmol/L and 2.37 mmol/L and 2.61 mmol/L (2×) and 2.82 mmol/L and 2.47 mmol/L and 3.04 mmol/L and 2.23 mmol/L and 3.31 mmol/L
[2]; rats No. 1-10, hyperlipoidemia mode, drug 14 days, 0.046 mmol/kg (Simvastatin 10 mg/kg), 15th day after administration
  serum total cholesterol (TC) contents, individual rats: 12.34 mmol/L and 9.37 mmol/L and 12.03 mmol/L and 10.25 mmol/L and 10.37 mmol/L and 9.36 mmol/L (2×) and 11.28 mmol/L (2×) and 15.24 mmol/L
